According to ChEMBL document CHEMBL1201862, “PubChem BioAssay data set” (2004):
Active and inactive are the calls of the source.

What was measured:
[1] = A Cell Based Secondary Assay To Explore Cytotoxicity of Compounds that Sensitize Mycobacterium Tuberculosis to Beta-Lactam Antibiotics.; format: functional
[2] = target: T1, Estrogen receptor (Homo sapiens, UniProt P03372);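 further: potency for inhibiting coactivator peptide recruitment to the receptor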
T1 sequence (P03372 whole entry): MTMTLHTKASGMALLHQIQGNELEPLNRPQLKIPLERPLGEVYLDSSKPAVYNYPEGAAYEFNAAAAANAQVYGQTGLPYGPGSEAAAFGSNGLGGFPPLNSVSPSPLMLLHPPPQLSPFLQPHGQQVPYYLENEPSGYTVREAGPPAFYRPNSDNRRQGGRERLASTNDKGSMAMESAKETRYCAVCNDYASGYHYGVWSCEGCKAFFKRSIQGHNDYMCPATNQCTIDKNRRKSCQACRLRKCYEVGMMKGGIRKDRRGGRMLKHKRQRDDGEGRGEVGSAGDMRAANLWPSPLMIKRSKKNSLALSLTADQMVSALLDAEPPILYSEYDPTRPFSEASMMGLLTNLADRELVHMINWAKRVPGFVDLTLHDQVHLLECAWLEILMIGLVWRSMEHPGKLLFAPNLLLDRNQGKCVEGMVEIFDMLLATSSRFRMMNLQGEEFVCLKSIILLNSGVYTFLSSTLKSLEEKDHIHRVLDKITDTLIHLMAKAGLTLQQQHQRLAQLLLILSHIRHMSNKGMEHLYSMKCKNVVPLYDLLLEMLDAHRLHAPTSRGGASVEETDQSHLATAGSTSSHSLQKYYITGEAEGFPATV

[3] = target: Heat shock protein HSP 90-alpha (Homo sapiens, UniProt P07900); format: functional, organism-based
[4] = Luminescence Cell-Based Dose Retest to Confirm Inhibitors of Cancer Stem Cells. [Related pubchem assays (depositor defined):AID2717, AID2721]; format: functional; conditions: Homo sapiens
[5] = target: Beta-galactosidase (Escherichia coli, UniProt Q8VNN2); assay: detection-enzyme interference by beta-gal modulators – biochemical, E. coli enzyme, set 3, artefact control for CCR6 antagonist project, dose response (AID 504712); format: functional
Sequence of Beta-galactosidase (Q8VNN2 whole entry): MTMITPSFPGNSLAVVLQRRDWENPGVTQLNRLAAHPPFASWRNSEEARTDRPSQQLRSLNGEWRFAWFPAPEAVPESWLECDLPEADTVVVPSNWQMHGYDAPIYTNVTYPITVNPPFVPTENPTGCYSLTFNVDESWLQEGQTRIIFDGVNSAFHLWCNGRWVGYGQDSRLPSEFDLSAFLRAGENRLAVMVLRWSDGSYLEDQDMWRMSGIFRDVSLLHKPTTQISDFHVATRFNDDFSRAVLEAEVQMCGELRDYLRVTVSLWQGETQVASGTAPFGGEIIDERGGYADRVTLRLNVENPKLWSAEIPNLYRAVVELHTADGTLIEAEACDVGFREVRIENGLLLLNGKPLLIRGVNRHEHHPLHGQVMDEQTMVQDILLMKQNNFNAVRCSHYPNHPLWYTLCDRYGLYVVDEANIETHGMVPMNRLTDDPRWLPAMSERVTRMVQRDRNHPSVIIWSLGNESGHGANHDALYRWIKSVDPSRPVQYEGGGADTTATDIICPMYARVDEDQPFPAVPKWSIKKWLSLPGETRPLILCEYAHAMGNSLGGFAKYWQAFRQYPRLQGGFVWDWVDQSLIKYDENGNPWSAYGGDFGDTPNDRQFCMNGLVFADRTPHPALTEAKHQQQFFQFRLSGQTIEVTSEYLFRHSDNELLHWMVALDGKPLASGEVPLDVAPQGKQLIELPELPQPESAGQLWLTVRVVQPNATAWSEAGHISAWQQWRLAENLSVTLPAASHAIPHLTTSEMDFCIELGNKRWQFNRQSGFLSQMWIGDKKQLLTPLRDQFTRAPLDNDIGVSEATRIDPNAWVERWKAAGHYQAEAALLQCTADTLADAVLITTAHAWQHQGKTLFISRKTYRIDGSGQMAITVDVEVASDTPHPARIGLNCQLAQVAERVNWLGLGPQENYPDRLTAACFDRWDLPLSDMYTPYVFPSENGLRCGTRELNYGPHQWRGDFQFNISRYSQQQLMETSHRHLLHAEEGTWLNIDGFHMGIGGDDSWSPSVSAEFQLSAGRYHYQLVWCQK

[6] = target: DNA dC->dU-editing enzyme APOBEC-3G (Homo sapiens, UniProt Q9HC16); assay: Dose Response confirmation of small molecule APOBEC3G DNA Deaminase Inhibitors via a fluorescence-based single-stranded DNA deaminase assay. [Related pubchem assays (depositor defined):AID493012, AID493028]; format: functional
Sequence of DNA dC->dU-editing enzyme APOBEC-3G (Q9HC16 whole entry): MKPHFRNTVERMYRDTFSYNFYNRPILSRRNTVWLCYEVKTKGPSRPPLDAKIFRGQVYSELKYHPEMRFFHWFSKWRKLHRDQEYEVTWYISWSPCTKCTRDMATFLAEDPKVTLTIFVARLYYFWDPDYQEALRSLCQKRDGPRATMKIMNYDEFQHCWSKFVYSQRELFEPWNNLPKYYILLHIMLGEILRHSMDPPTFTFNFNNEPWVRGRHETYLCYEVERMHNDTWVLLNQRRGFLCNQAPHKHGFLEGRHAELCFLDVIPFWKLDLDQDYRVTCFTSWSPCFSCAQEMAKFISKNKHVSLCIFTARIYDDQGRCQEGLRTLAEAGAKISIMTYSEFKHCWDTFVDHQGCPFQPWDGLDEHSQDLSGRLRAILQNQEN

[7] = target: T2, Aspartyl aminopeptidase (Plasmodium falciparum 3D7, UniProt Q8I2J3); assay: Counterscreen for inhibitors of M1 and M17 aminopeptidases: QFRET-based biochemical high throughput dose response assay for inhibitors of the Plasmodium falciparum M18 Aspartyl Aminopeptidase (PFM18AAP). [Related PubChem assays: 1619 (Screening assay (M17LAP inhibitors).), 1445 (Screening assay (M1AAP inhibitors).)]
T2 sequence (Q8I2J3 whole entry): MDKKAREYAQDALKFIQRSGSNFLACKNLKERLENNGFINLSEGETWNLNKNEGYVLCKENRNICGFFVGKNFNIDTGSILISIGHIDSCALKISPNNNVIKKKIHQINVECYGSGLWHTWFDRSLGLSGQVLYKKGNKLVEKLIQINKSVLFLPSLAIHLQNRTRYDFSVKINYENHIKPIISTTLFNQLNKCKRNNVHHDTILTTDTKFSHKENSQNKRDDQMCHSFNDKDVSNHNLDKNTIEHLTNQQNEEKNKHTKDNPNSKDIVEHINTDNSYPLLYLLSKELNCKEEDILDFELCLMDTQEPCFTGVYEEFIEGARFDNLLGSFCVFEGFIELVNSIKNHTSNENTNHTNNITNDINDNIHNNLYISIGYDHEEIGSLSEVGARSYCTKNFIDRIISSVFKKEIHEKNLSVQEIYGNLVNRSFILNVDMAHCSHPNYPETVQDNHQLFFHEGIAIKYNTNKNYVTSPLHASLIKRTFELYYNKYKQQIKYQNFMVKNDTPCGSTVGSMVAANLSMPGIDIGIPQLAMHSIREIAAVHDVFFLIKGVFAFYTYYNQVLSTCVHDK

[8] = target: Procathepsin L (Homo sapiens, UniProt P07711); assay: CTSL1 protease inhibition – biochemical, QFRET, 1536-well, counter-screen for M1/M17 aminopeptidase inhibitor project, dose response (AID 2214)
Sequence of Procathepsin L (P07711 whole entry): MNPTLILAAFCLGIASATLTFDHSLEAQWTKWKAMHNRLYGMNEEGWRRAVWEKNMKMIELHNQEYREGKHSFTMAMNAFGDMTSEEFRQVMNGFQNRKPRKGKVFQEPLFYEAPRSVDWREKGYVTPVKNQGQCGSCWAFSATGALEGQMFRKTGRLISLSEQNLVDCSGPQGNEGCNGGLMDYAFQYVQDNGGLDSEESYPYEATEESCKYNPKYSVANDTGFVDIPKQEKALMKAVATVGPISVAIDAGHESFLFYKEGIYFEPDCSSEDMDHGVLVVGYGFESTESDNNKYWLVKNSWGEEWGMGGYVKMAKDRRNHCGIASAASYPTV

[9] = target: T3, Leucine aminopeptidase (Plasmodium falciparum 3D7, UniProt Q8IL11); assay: P. falciparum M17LAP inhibitors, primary screen, biochemical, fluorogenic H-Leu-NHMec substrate, 1536-well (AID 1619); format: functional
T3 sequence (Q8IL11 whole entry): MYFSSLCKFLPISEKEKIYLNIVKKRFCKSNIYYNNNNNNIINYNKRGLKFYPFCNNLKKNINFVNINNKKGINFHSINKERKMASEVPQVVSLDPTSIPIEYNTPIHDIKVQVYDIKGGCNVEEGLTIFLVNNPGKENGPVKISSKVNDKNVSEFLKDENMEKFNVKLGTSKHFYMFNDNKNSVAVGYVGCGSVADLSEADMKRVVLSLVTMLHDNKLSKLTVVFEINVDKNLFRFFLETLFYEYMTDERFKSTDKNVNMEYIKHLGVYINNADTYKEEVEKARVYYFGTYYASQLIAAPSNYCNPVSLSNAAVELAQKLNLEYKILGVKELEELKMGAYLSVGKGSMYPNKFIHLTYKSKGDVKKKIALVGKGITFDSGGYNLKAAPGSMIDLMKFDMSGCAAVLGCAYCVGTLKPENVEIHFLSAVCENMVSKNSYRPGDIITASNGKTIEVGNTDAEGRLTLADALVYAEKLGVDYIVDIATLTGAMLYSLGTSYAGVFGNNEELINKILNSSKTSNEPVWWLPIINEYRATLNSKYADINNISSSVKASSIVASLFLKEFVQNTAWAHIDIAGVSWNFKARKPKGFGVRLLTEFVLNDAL

[10] = A cytotoxicity screen of small molecule inhibitors of the PhoP region in Salmonella typhi identified in the primary screen. [Related pubchem assays: 1850, 1864, 1985 ]; format: functional
[11] = HIV-1 Vif–A3G interaction blockers – biochemical, TR-FRET, GST-Vif 1-94, biotin-A3G peptide, dose response retest, primary screen (AID 1117319); format: functional;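 further: TR-FRET signal of purified GST-Vif binding a biotinylated A3G peptide; inhibitors lower the FRET signal by blocking Vif and A3G binding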
[12] = target: Estrogen receptor beta (Homo sapiens, UniProt Q92731);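 further: recombinant ER-beta bound to coactivator SRC1 peptide in presence of estradiol agonist; inhibitors block coactivator peptide binding and lower the FRET signal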
Sequence of Estrogen receptor beta (Q92731 whole entry): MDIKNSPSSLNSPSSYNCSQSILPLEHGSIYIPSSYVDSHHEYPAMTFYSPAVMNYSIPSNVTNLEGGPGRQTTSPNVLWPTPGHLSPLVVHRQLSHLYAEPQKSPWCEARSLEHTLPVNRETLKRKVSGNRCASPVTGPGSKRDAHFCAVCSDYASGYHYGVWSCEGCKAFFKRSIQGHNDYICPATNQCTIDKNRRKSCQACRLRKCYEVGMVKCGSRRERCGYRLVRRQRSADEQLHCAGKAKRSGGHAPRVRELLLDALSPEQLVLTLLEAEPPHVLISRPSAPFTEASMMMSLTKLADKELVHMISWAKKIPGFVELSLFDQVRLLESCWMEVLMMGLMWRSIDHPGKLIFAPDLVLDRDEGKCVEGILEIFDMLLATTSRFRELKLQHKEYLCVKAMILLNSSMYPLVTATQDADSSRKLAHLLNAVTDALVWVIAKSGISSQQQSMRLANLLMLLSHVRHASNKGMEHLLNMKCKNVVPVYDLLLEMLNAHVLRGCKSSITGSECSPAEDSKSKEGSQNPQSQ

[13] = test system: HEK293; assay: NOD2 signaling inhibitors in MDP-stimulated cells, cell-based, uHTS, luminescence (AID 2001); format: functional; conditions: Homo sapiens
[14] = test system: HEK293; assay: cells; format: functional, cell-based; conditions: Homo sapiens
[15] = test system: HEK293; assay: cells; format: functional, cell-based; conditions: Homo sapiens; remark: listed apart in the source
[16] = test system: HEK293; assay: cells; format: functional, cell-based; conditions: Homo sapiens; remark: listed apart in the source
[17] = test system: HEK293; assay: inhibition of NOD1-driven NF-kB reporter – cell-based, luminescence, uHTS, primary screen (AID 1578); format: functional; conditions: Homo sapiens
[18] = target: T4, Carboxy-terminal domain RNA polymerase II polypeptide A small phosphatase 1 (Homo sapiens, UniProt Q9GZU7); assay: CTDSP1 inhibitors, concentration-response, biochemical, absorbance readout, ultra-high-throughput screen actives (AID 540297); format: functional
T4 sequence (Q9GZU7 whole entry): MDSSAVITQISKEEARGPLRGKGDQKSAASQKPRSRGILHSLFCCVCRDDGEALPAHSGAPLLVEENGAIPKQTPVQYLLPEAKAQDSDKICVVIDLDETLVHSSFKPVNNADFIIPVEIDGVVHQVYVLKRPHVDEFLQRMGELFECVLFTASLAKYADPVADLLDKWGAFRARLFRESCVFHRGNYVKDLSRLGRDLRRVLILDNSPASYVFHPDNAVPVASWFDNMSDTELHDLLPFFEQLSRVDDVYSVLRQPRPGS

[19] = target: Eukaryotic translation initiation factor 4E (Mus musculus, UniProt P63073); assay: blockers of eIF4G binding by eIF4E – biochemical, TR-FRET, dose response (AID 855); format: functional;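 further: potency for disrupting eIF4E binding to eIF4GI seen as loss of FRET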
Sequence of Eukaryotic translation initiation factor 4E (P63073 whole entry): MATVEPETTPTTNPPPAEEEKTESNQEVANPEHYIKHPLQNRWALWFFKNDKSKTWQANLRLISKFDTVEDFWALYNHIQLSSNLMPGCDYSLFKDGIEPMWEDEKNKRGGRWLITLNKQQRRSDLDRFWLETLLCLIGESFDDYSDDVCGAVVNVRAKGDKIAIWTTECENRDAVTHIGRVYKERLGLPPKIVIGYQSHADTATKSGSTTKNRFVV

[20] = M. tuberculosis H37Rv growth inhibitors, H37Rv strain (AID 1626); format: functional
[21] = blockade of melanocortin 4 receptor signaling – cell-based, plate reader, cherry pick, counter-screen for LGR2 antagonist project, dose response (AID 743444); format: functional;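 further: transfected HEK 293 cells stimulated with alpha-MSH peptide; potency of inhibitors of the alpha-MSH evoked signal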
[22] = cells; format: functional
[23] = blockers of bursicon-stimulated LGR2 cAMP reporter – cell-based, HEK293, CRE-luciferase reporter, cherry pick, set 2, dose response (AID 743343); format: functional;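 further: transfected cells were stimulated with diluted bursicon conditioned medium after compound addition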
[24] = NIH3T3 cell viability loss – ATP luminescence, mouse fibroblasts, counter-screen, dose response (AID 2010); format: functional, cell-based;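 further: cells exposed to compound for about 90 hours before reading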
[25] = Trypanosoma cruzi growth suppression in host cells – NIH3T3 host cells, beta-gal luminescence, confirmation (AID 2044); format: functional, cell-based;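 further: intracellular parasites grown in NIH/3T3 mouse fibroblasts as host cells; luminescent beta-galactosidase reporter signal from transgenic T. cruzi replicating inside host cells; inhibitors lower the luminescence signal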
[26] = test system: Streptococcus; assay: GAS UMAA2166 growth inhibition – luminescence, BacTiterGlo, counter-screen for streptokinase expression inhibitor project, dose response (AID 1915); format: functional, organism-based;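 further: potency for reduction of bacterial viability or growth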
[27] = test system: Streptococcus sp. 'group A'; assay: Streptococcus pyogenes SK(-)GAS viability under kanamycin – luminescence, BacTiterGlo, confirmation, counter-screen for streptokinase expression inhibitor project, dose response (AID 1900); format: functional, organism-based
[28] = target: T5, Streptokinase A (Streptococcus pyogenes serotype M1, UniProt P10520); assay: viability-normalized secreted streptokinase activity reduction – plasminogen activation absorbance, OD405, dose response (AID 1914); format: functional, Streptococcus pyogenes M1 GAS;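 further: secreted streptokinase activity via plasminogen activation per viability signal from cell pellet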
T5 sequence (P10520 whole entry): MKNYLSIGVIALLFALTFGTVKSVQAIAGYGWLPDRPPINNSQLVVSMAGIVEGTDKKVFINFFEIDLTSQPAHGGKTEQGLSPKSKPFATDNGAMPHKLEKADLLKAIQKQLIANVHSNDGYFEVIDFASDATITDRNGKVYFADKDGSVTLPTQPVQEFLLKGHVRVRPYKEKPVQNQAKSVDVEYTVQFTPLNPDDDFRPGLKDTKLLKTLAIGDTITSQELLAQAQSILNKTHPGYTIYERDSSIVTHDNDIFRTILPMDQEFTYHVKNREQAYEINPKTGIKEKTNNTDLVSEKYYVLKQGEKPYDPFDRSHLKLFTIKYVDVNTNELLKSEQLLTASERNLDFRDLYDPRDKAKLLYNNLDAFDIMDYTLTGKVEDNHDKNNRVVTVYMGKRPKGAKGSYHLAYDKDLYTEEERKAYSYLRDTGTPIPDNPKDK

CC1(C)Cc2c(C#N)c(SCc3ccccc3)nc(N3CCOCC3)c2CO1
CC50 [1]: > 40 µM (active)

O=C(NC1CCS(=O)(=O)C1)c1c(NC(=O)C2COc3ccccc3O2)sc2c1CCCC2 (stereo not drawn)
IC50 [2]: > 50 µM (not active)

Cc1ccc(C(=O)Nc2ccc(N3CCN(C(=O)c4cccs4)CC3)cc2)c(Cl)c1
CC50 [1]: > 40 µM (active)

CCOC(=O)/C=C/C(=O)Nc1cccc([N+](=O)[O-])c1
AC50 [3]: 3.97 µM (active) | AC50 [4]: 5.87 µM (active) | IC50 [5]: > 66.6 µM (inactive) | IC50 [6]: 11 µM (active)

CCOc1ccc(NC(=O)Nc2cccs2)cc1
IC50 [7]: > 73.5 µM (not active) | IC50 [8]: > 59.6 µM (not active) | IC50 [9]: 3.22 µM (active)

CCn1c(=N)n(CC(=O)c2ccc(OC)cc2)c2ccccc21
EC50 [10]: > 50 µM (active) | IC50 [11]: > 100 µM (active)

COC(=O)c1cnn2c(C(F)(F)F)cc(-c3ccco3)nc12
IC50 [2]: 42.4 µM (not active) | IC50 [12]: 25.9 µM (active)

Cn1c(=O)c(C(=O)COC(=O)c2cc(C3CC3)nc3ccccc23)c(N)n(Cc2ccccc2)c1=O
CC50 [1]: > 40 µM (active)

O=C(c1n[nH]cc1-c1ccc(Cl)cc1)C1CO1 (stereo not drawn)
IC50 [13]: 5.72 µM (inactive) | IC50 [14]: 4.08 µM (active) | IC50 [15]: > 20 µM (inactive) | IC50 [16]: > 20 µM (inactive) | EC50 [17]: 19.3 µM (active)

COc1cc(NC(=O)CSc2nnc3c(C)cc4cc(C)cc(C)c4n23)c(C(=O)O)cc1OC
IC50 [7]: > 73.5 µM (not active) | IC50 [8]: > 59.6 µM (not active) | IC50 [9]: 6 µM (active)

CCOc1ccccc1NC(=O)N1CCC(NC(=O)c2cccc(C)c2)CC1
IC50 [18]: 18.8 µM (active) | IC50 [19]: 58 µM (inactive)

O=C(COc1ccc2ccccc2c1)Nc1nccs1
IC50 [20]: > 100 µM (active) | EC50 [10]: > 50 µM (active) | AC50 [21]: 18 µM (active) | IC50 [22]: 22.3 µM (active) | AC50 [23]: 7.4 µM (active)

O=C1c2ccccc2C(O)N1Cc1ccccc1Cl (stereo not drawn)
IC50 [19]: > 64 µM (inactive)

O=C(O)C1CC=CCC1C(=O)Nc1cc(Cl)ccc1Cl (stereo not drawn)
IC50 [7]: > 73.5 µM (not active) | IC50 [8]: > 59.6 µM (not active) | IC50 [9]: 6.22 µM (active)

CCOC(=O)c1sc(NC(=O)Nc2ccc(Cl)cc2)cc1C
EC50 [24]: > 60 µM (not active) | EC50 [25]: 1.5 µM (active) | CC50 [1]: 24.9 µM (active) | EC50 [26]: 15.6 µM (active) | EC50 [27]: 6.12 µM (active) | EC50 [28]: 26.1 µM (inconclusive)

O=C(CSc1nc(-c2ccc(F)cc2)c[nH]1)NCc1ccco1
EC50 [10]: > 50 µM (active)

O=C(Nc1cccnc1)c1c(O)c2c(n(Cc3ccccc3)c1=O)CCCC2
IC50 [19]: > 64 µM (inactive)

CN1CCN(C2=CC(=O)OC23CCCCC3)CC1
IC50 [19]: > 64 µM (inactive)
